# “And” between values parts separate entries of the source, which are not always exact repeats. Identical values can stand only once.
# What was measured:
# Assay type in all cases: cell-based, human
# primary AML blasts [1] = assay: Chromium release assay, lysis of primary AML blasts by Vγ9Vδ2 T cells; conditions: E:T 30:1; ZOL 45 μM O/N, 20.1 mAb 10 μg/ml, BrHpp 2 μM
# Method: (§1) Effector γδ T cells were established and maintained as previously described^28. PBMC from HV were stimulated with ZOL (1 μm) and rhlL-2 (200 IU/ml) at Day 0. From Day 5, rhIL-2 was renewed every two days and cells were kept at 1.5×10^6/m1 for 15 days. NK cells were isolated using EASYSEP® Human NK cell enrichment kit (StemCell Technologies). The purity of γδ T cells and NK cells was determined by flow cytometry and respectively greater than 80% and 98%. The Burkitt lymphoma cell line, DAUDI, the human AML cell line, U937, and the erythroleukemic cell line, K562, were obtained from the American Type Culture Collection and cultured (0.5×10^6/ml) in RPMI 1640 medium with 10% FCS. BTN3A Knock-down HEK293FT cells (sh #284; clone #30) were provided by E.Scotet (Inserm U892, Nantes), cultured and transfected with BTN3A1, BTN3A2, BTN3A3 mutated cDNA-containing plasmids, as described^23.
# (§2) 0.5×10^6 target cells were incubated with 50 pCi of ^51Cr (Perkin-Elmer) for AML blasts and 10 pCi for DAUDI and K562 cells for 90 minutes and mixed with effector cells in a Effector:Target (E:T) ratio of […]. After 4 hours of incubation at 37° C., 50p1 supernatant of each sample was transferred in LUMA® plates and radioactivity was determined by a gamma counter. The percentage of specific lysis was calculated using the formula [(experimental−spontaneous release/total−spontaneous release)×100] and expressed as the mean of triplicate.
# primary AML blasts [2] = assay: Chromium release assay, lysis of primary AML blasts by NK cells
# Method: as §1, with “BTN3A Knock-down HEK293FT cells (sh #284; clone #30) were provided by E.Scotet (Inserm U892, Nantes), cultured and transfected with BTN3A1, BTN3A2, BTN3A3 mutated cDNA-containing plasmids, as described^23.” left out
# as §2
# Vγ9Vδ2 T cells = assay: Activation / CD107 degranulation of expanded Vγ9Vδ2 T cells (phosphoantigen or anti-CD3 stimulation); conditions: increasing doses of BrHPP alone
# Method: We used for γδ T cells labelling in purity test after expansion, anti-CD3 PE-Cy7 and anti-Vδ2 FITC mAb (BD Pharmingen). For CD277 characterisation in different subsets PBMC were incubated with the following antibodies and molecules: anti-CD3 PE-Cy5 (BD Pharmingen), anti-CD4 PB (BD Pharmingen), anti-CD8 PB (BD Pharmingen), anti-Vδ2 FITC (BD Pharmingen), anti-CD27 APC ALEXA FLUOR® 750 (CALTAG Laboratory), anti-CCR7 PECy7 (BD Pharmingen), anti-CD28 PE (Beckman Coulter), anti-CD45RA ECD (Beckman Coulter), LIVE/DEAD® Fixable Dead Cell Stain Kit (L34957, Invitrogen) and anti-CD277 labelled with ALEXA FLUOR® 647 (Protein labelling Kit ALEXA FLUOR® 647, Molecular Probes, Invitrogen). […] All samples were measured on FACSCANTO® or FACSARIA® flow cytometers (BD Biosciences) using FACSDIVA® software. […]
# PBMC were plated and stimulated as described in the paragraph: cell lines and expansion of γδ T cells, except cells were stimulated with anti-CD277 mAbs (10 μg/ml); or control isotypes (10 μg/ml); and with or without BrHPP at different concentrations. […] Percentages of Vγ9Vδ2 were measured the first day and the last day of culture as described above. […] Activation of degranulation was measured by CD107 labelling assay as described above.
# monocytes = assay: Apoptosis detection (Annexin V), survival of monocytes; conditions: plastic-coated mAb or 20 ng/ml GM-CSF, 3 days (72 hours), Annexin V; representative value and range of five experiments
# Method: (§3) Blood samples were obtained from 5 healthy volunteers enrolled among the staff members, after informed consent. Monocytes were separated from peripheral blood mononuclear cells, and isolated using the MACS CD14 isolation kit (Miltenyi Biotech, Auburn, Calif. USA). Monocytes were cultured for 5 days with 200 ng/ml of recombinant human GM-CSF and 10 ng/ml recombinant human IL-4 (Schering-Plough Research Institute). These cells were termed immature dendritic cells (iDC). To achieve the stimulation, monocytes and iDC were cultured with 10 ng/ml of LPS, ligand for TLR4, 30 μg/ml of 8848 (Sigma-Aldrich, Milano, Italy), ligand for TLR7/8 and with […] of poly (I:C) (Sigma-Aldrich), ligand for TLR3, and were harvested after 48 h. The cells were cultured in RPMI 1640 supplemented with 10% heat-inactivated FCS, 5 mM L-glutamine and 50 IU/ml penicillin-streptomycin (from here on referred to as complete medium).
# (§4) Monocytes and iDC were cultured on plastic coated with anti-BT3 mAb (clone 20.1) or with isotype-matched irrelevant mAb. As control, the cells were stimulated with 20 ng/ml recombinant human GM-CSF (Schering-Plough Research Institute). After three days, cells were harvested, stained with Annexin V-FITC (Bender MedSystems, Wien, Austria) and analysed by flow cytometry.
# [3] = test system: immature dendritic cells (iDC); assay: Apoptosis detection (Annexin V), survival of iDC; conditions: plastic-coated mAb or GM-CSF, 72-h culture, representative value and range of five experiments
# Method: as §3, §4
compound,measurement,setting,value
"O=P(O)(O)C(O)(Cn1ccnc1)P(=O)(O)O [ZOL, Zoledronate, reference compound]",enhancement of Vγ9Vδ2 T cells lysis of AML blasts compared with BrHpp,primary AML blasts [1],significantly more efficient
same,NK cells-mediated AML blasts lysis,primary AML blasts [2],no effect
CC(O)(CBr)CCOP(=O)(O)OP(=O)(O)O (centres unmarked) [BrHPP],CD107 expression,Vγ9Vδ2 T cells,up to 40%
"GM-CSF: recombinant human GM-CSF, survival control [reference compound]",monocytes survived in the absence of endogenous survival factors,monocytes,81.22% and 60.41-83%
same,healthy-vital (surviving) iDC,[3],85.97% and 71.01-85.97%

# — patent US11904004B2, “Anti-CD277 antibodies” (INSTITUT NATIONAL DE LA SANTE ET DE LA RECHERCHE MEDICALE …, priority 2010, dated 2024)
